Common to all, as to format: cell-based
In assay [1] the test system is autophagy reporter Rosella (LC3 tag) in HeK293 cell line. As to the kind of experiment: Autophagy assay (reporter Rosella, imaging). The settings on record: Homo sapiens; HeK293 cells stably expressing reporter Rosella; 18 hours incubation; reference Torin-1 1 μM as max signal; read-out: Secondary Assays Autophagy qAC50. How it is done: Buffers and Reagents • Tyrode's buffer with 2 mM Ca^2+ in-house solution (130 mM NaCl, 5 mM KCl, 2 mM CaCl2), 1 mM MgCl2, 5 mM NaHCO3, 20 mM HEPES in water at pH 7.4; sterile filtered) • DMSO (Sigma) • Bis-benzimide H 33342 trihydrochloride (Hoechst 33342; Sigma-Aldrich) • Reference molecule (agonist): Torin-1, (#4247, Tocris) stock 1.2 mM in DMSO, stored at −20° C.
Reporter of Autophagy and Cell Line
Reporter Rosella: a fluorescent-based chimera constitutes by two fluorescent proteins, Green and Red variants, acting as a bimodal indicator of pH. […] The reporter is fused to sequence for autophagosome localization (LC3 tag).
The reporter Rosella have been stably expressed in HeK293 cell line and used as read-out.
Experiments have been performed in 384 MTP poly-lysine coated well format. Cells have been seeded in 384-w at a density of 6000 cells/well in 25 μl/well complete growth medium without antibiotics. Twenty-four hours later, cells have been treated with compounds and incubated for further 18 hours. Then the cells have been imaged and assayed for the response to various compounds using the reporter for autophagy expressed in the cells as readout.
The experiments were performed in a 384-well format according to the following procedure: • 24 h after seeding, cells were incubated with compounds at the desired concentration, and with the reference molecule (agonist) Torin-1 at a top concentration of 1 μM (max signal), for 18 hours at 37° C. and 5% CO2. The final percentage of DMSO was 0.3% in all the conditions. • Then the culture medium was carefully removed to avoid cells detachment and to discard red phenol into the medium and that can interfere with the measurements. • Staining of the nuclei was obtained by incubating the cells with 8 μM/well of Hoechst 3342 in standard Tyrode's buffer for 20 min at RT • Then the cells were carefully washed two times with standard Tyrode's buffer • Finally, the samples were acquired by recording three fluorescence emission channels (green, red and blue) at 20× magnification and with at least 3-4 fields of view per well in an Operetta CLS microscope (PerkinElmer). • Image analysis was performed by using Harmony software (PerkinElmer). The image analysis involved the following steps: flat-field illumination correction, nuclei segmentation, cell segmentations and identification of vesicles/granules within the cytosol compartments and representing the autophagy vesicles. Measurements of signal intensity ratio (Green to Red) and number of autophagy vesicles per cells were used to obtain information on the effects of compounds on the autophagy flux. • Data from image analysis measurements were finally loaded and analyzed for normalization and fitting procedures in Genedata Screener© software.

The target of assay [2] is T1, TRPML1 (Homo sapiens, UniProt Q9GZU1).
T1 construct: expressed in transfected cells
T1 sequence (Q9GZU1 whole entry): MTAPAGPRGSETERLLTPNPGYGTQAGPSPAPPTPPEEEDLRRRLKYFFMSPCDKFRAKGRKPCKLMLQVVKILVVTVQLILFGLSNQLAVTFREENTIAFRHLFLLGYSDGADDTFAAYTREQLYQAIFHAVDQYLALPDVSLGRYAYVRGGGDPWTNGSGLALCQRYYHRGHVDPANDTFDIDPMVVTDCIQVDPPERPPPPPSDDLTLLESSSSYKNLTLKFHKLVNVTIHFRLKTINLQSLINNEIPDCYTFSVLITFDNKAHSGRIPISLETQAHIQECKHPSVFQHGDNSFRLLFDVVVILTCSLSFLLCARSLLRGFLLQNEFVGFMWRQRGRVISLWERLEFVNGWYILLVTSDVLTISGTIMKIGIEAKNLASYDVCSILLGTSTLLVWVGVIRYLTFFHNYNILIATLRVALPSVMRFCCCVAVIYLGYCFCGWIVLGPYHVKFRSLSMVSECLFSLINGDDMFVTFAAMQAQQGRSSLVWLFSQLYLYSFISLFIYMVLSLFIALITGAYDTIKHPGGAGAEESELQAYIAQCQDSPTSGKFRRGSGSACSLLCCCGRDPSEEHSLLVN
Kind of assay: Cellular TRPML1 assay (FLIPR TETRA, GCaMP6f calcium read-out). The note with it: HEK T-REx/GCaMP6f/TRPML1 cells; Ca2+ response over 300 s, normalized to ML-SA1 50 μM; Ca2+ free or Optimem condition not given; read-out: Ec50 (Activity of TRPML1 agonists). In a few lines:
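HEK T-REx cells stably expressing TRPML1 and GCaMP6f, assayed 24 h after seeding in Ca2+-free Tyrode's (pH 7.4) or Opti-MEM. Compounds injected on FLIPR Tetra (0.5% DMSO) in dose-response from 100 μM (1:2) or 50 μM (1:3.16); fluorescence kinetics 300 s, referenced to 50 μM ML-SA1 stimulator control.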

For assay [3], the target named is T1, TRPML1. As to the kind of experiment: TRPML1 automated patch-clamp (QPatch 16X). The note with it: HEK T-REx/GcaMP6f/TRPML1 cells, current with compound/current in vehicle, extracellular pH 4.6. On the procedure: TRPML1—Automated Patch-Clamp
HEK T-REx/GcaMP6f/TRPML1 cells were cultured in DMEM High Glucose (Lonza BioWhittaker cat. BE12-604F/U1; 500 mL) supplemented with Fetal Bovine Serum TET-FREE (Euroclone cat. EC S0182L; 50 mL, Penicillin-Streptomycin (BioWhittaker, cat. DE17-602E; 5 mL of 100× Solution), G418 (Sigma, cat. G8168; 0.25 mg/ml) and Zeocyn (InvivoGen, cat. ant-zn-1; 50 μg/ml).
HEK T-REx/GcaMP6f/TRPML1 cells were seeded 48 or 72 hours before experiment, at a concentration of 8*10^6/4*10^6 cells onto a T225 flask. Just before the experiments, cells were washed twice with D-PBS w/o Ca^2+/Mg^2+ (Euroclone cat. ECB4004L) and detached from the flask with trypsin-EDTA (Sigma cat. T4174; diluted 1/10). Cells were then re-suspended in the suspension solution: 25 mL EX-CELL ACF CHO medium(Sigma cat. C5467); 0.625 mL HEPES (Sigma cat. H0887); 0.25 mL of 100× Penicillin/Streptomycin (Euroclone cat. ECB3001D), 0.1 mL of Soybean Trypsin Inhibitor 10 mg/mL (Sigma cat. T6522) and placed on the QPatch 16X.
Dilution from stock were prepared just before the experiments in the extracellular solution (0.25% final DMSO concentration). DMSO solution was obtained from AppliChem (cat. A3672)
Patch Clamp Solutions: • Intracellular solution (mM): 120 CsMeSO3, 4 NaCl, 2 MgCl2, 10 EGTA, 20 HEPES, 2 Mg-ATP (pH 7.2 with CsOH). • Extracellular solution (mM): 140 NaGluconate, 5 KCl, 1 MgCl2, 2 CaCl2), 10 Glucose, 10 MES (pH 4.6 with HCl).
Patch Clamp Analysis—QPatch 16X
For the voltage clamp experiments on TRPML1, data were sampled at 5 KHz. After establishment of the seal and the passage in the whole cell configuration, the cells were held at −20 mV and the TRPML1 current was evoked using the voltage protocol illustrated in FIG. 2, applied every 5 sec. (50 ms at −20 mV; 20 ms at −120 mV, 1000 ms ramp from −120 to […]; 20 ms at +40 mV, and back to −20 mV); in the absence (vehicle period, i.e. 0.25% DMSO) and in the presence of increasing concentrations (3) of the compound under investigation.
Agonists: For data collection, the Sophion proprietary software was used and the analysis was performed off-line using Excel and GraphPad Prism (V 8.00). Results are reported in Table 6, expressed as TRPML1 current fold increase evoked by the compound under investigation (i.e. current in the presence of the compound/current in vehicle).

As to `COC1CCCN(c2ccccc2NS(=O)(=O)c2ccc(S(=O)(=O)N(C)C)cc2)CC1` (racemic) [Example 40, N1-(2-(4-methoxyazepan-1-yl)phenyl)-N4,N4-dimethylbenzene-1,4-disulfonamide], the EC50 in assay [1] was determined as 1.3 µM; on TRPML1 [2], 3 µM.
For the molecule `CN(C)S(=O)(=O)c1ccc(S(=O)(=O)Nc2ccccc2N2CCC(F)(F)CC2)cc1` [Example 33, N4-[2-(4,4-difluoropiperidin-1-yl)phenyl]-N1,N1-dimethylbenzene-1,4-disulfonamide], the EC50 in assay [1] came out at 1.3 µM; on TRPML1 [2], 10.8 µM.
`Cc1ccc(S(=O)(=O)Nc2ccccc2N2CCC(Oc3ccccn3)CC2)c(C)c1` [Example 65, 2,4-dimethyl-N-(2-(4-(pyridin-2-yloxy)piperidin-1-yl)phenyl)benzenesulfonamide]: the results for the EC50 (in assay [1]; on TRPML1 [2]) were 31.4 µM and 3.5 µM, respectively.
Turning to `CCCOC1CCN(c2ccccc2NS(=O)(=O)c2cc(C)sc2C)CC1` [Example 68, 2,5-dimethyl-N-(2-(4-propoxypiperidin-1-yl)phenyl)thiophene-3-sulfonamide], the EC50 in assay [1] turned out to be 15.3 µM; on TRPML1 [2], 4.6 µM.
Consider `Cc1cc(S(=O)(=O)Nc2ccccc2N2CCN(C(=O)OC(C)(C)C)CC2)c(C)o1` [Example 58, tert-butyl 4-(2-((2,5-dimethylfuran)-3-sulfonamido)phenyl)piperazine-1-carboxylate], for which the EC50 in assay [1] was found to be 22.4 µM; at TRPML1 [2], 2.3 µM.
In the same order, the values of `CC(C)N(C(=O)c1ccc(S(=O)(=O)N(C)C)cc1)c1ccccc1N1CCN(C(=O)OC(C)(C)C)CC1` [Example 46, tert-butyl 4-(2-(4-(N,N-dimethylsulfamoyl)-N-isopropylbenzamido)phenyl)piperazine-1-carboxylate] are 1.3 µM and 9.4 µM.
Regarding `CN(C)S(=O)(=O)c1ccc(S(=O)(=O)Nc2ccccc2N2CCCCCC2)cc1` [Example 85, N4-[2-(azepan-1-yl)phenyl]-N 1 ,N1-dimethylbenzene-1,4-disulfonamide], the figures for the “Qpatch Assay TRPML1 agonism Current fold increase Mean ± SEM (n)” value on TRPML1 [3] (0.3 μM compound), at TRPML1 [3] (3.0 μM compound) and on TRPML1 [3] (30 μM compound) were 17.7 ± 5.5 (4), 206 ± 167 (2) and 260 ± 202 (2), respectively. For the same molecule, the EC50 on TRPML1 [2] worked out at 1.6 µM.
`COC(=O)N1CCN(c2ccccc2NS(=O)(=O)c2ccc(S(=O)(=O)N(C)C)cc2)CC1` [Example 52, methyl 4-{2-[4-(dimethylsulfamoyl)benzenesulfonamido]phenyl}piperazine-1-carboxylate]: the “Qpatch Assay TRPML1 agonism Current fold increase Mean ± SEM (n)” value at TRPML1 [3] (0.3 μM compound) is 1.3 ± 1.0 (3); on TRPML1 [3] (3.0 μM compound), 10.4 ± 3.8 (3); at TRPML1 [3] (30 μM compound), 472.5 ± 267.9 (3). In addition, the EC50 on TRPML1 [2] stood at 7.2 µM.
Take `Cc1ccc(S(=O)(=O)Nc2ccccc2N2CCN(C(=O)OC(C)(C)C)CC2)cc1` [Example 83, t-butyl 4-[2-(4-methylbenzenesulfonamido)phenyl]piperazine-1-carboxylate]: the entries for the “Qpatch Assay TRPML1 agonism Current fold increase Mean ± SEM (n)” value at TRPML1 [3] (0.3 μM compound), on TRPML1 [3] (3.0 μM compound) and at TRPML1 [3] (30 μM compound) were 70.2 ± 13.8 (4), 125.0 ± 31.0 (4) and 140.3 ± 36.8 (4), respectively. Besides, on TRPML1 [2], the EC50 is 1.8 µM.
Take `COc1ccc(S(=O)(=O)Nc2ccccc2N2CCN(C(=O)OC(C)(C)C)CC2)cc1` [Example 84, t-butyl 4-[2-(4-methoxybenzenesulfonamido)phenyl]piperazine-1-carboxylate]: the results for the “Qpatch Assay TRPML1 agonism Current fold increase Mean ± SEM (n)” value on TRPML1 [3] (0.3 μM compound), on TRPML1 [3] (3.0 μM compound) and on TRPML1 [3] (30 μM compound) were 8.6 ± 1.3 (2), 32.9 ± 3.5 (2) and 42.7 ± 1.4 (2), respectively. Also, the EC50 on TRPML1 [2] was found to be 4.2 µM.
Consider `CN(C)S(=O)(=O)c1ccc(S(=O)(=O)Nc2ccccc2N2CCN(C(=O)OCC(F)(F)F)CC2)cc1` [Example 53, 2,2,2-trifluoroethyl4-{2-[4-(dimethylsulfamoyl)benzenesulfonamido]phenyl}piperazine-1-carboxylate], for which the entries for the “Qpatch Assay TRPML1 agonism Current fold increase Mean ± SEM (n)” value at TRPML1 [3] (0.3 μM compound), at TRPML1 [3] (3.0 μM compound) and on TRPML1 [3] (30 μM compound) were 1.9 ± 1.6 (3), 88.3 ± 59.9 (3) and 257.4 ± 190.7 (3), respectively. Besides, the EC50 at TRPML1 [2] came out at 3.6 µM.
On to `CN(C)S(=O)(=O)c1ccc(S(=O)(=O)NCc2ccccc2N2CCCCC2)cc1` [Example 74, N1,N1-dimethyl-N4-{[2-(piperidin-1-yl)phenyl]methyl}benzene-1,4-disulfonamide], for which the “Qpatch Assay TRPML1 agonism Current fold increase Mean ± SEM (n)” value at TRPML1 [3] (0.3 μM compound) was 4.3 ± 2.0 (6); at TRPML1 [3] (3.0 μM compound), 356 ± 69.7 (6); on TRPML1 [3] (30 μM compound) it was 639 + 241 (3). Further, the EC50 at TRPML1 [2] was 3.2 µM.
On to `Cc1ccc(S(=O)(=O)Nc2ccccc2N2CCC(C(=O)OC(C)(C)C)CC2)cc1` [Example 90], for which the “Qpatch Assay TRPML1 agonism Current fold increase Mean ± SEM (n)” value at TRPML1 [3] (0.3 μM compound) is listed as 140 ± 44.1 (4); on TRPML1 [3] (3.0 μM compound), 83.1 ± 34.0 (2); at TRPML1 [3] (30 μM compound), 112 ± 38.1 (2). In addition, the EC50 at TRPML1 [2] came out at 2.5 µM.
On the same counts, the results for `COC1CCN(c2ccccc2NS(=O)(=O)c2ccc(S(=O)(=O)N(C)C)cc2)CC1` [Example 26, N4-[2-(4-methoxypiperidin-1-yl)phenyl]-N1,N1-dimethylbenzene-1,4-disulfonamide] are 0.46 ± 0.16 (3), 41.4 ± 21.1, 390 ± 158 (3) and 4.5 µM.

Values taken from US20230010299A1, “HETEROCYCLIC TRPML1 AGONISTS” (LIBRA THERAPEUTICS, INC., priority 2019, published 2023).
